Experimental data taken from patent publication US5792775A (priority 1996, dated 1998).
“Also recorded” adds a separate entry of the source. Where two headings read alike, the source gives them in different places.

Columns and labels:
[1] = molecular target: serotonin transporter (5HTT) (Rattus norvegicus, UniProt P31652); assay: Serotonin transporter binding ([^3 H]citalopram), NOVASCREEN
From the text: (§1) Serotonin (5-HTT), norepinephrine transporter (NET) and muscarinic m1 and m2 receptor binding data were provided by NOVASCREEN.

[2] = system: dopamine uptake, rat caudate putamen; format: biochemical
[3] = molecular target: norepinephrine transporter (NET) (Rattus norvegicus, UniProt Q63380); assay: biochemical; format: binding
Chain of norepinephrine transporter (NET) (Q63380 1-617): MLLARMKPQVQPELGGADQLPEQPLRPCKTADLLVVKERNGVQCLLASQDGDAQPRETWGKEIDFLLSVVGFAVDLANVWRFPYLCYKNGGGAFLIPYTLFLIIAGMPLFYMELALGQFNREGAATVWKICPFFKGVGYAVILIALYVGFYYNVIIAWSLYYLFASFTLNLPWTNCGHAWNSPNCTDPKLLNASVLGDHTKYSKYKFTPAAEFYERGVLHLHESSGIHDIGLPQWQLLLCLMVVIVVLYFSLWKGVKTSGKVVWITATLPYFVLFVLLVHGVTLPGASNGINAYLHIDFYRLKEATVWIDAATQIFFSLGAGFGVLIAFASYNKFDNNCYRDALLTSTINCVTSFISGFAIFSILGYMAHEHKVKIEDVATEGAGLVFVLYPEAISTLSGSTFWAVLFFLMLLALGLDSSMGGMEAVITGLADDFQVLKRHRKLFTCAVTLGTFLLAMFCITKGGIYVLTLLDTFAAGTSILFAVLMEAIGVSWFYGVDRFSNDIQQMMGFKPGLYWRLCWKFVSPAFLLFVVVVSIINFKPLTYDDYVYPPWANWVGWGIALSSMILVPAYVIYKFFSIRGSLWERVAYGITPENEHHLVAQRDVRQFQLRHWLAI

muscarinic m2 receptors = molecular target: T1, muscarinic m2 receptors (Rattus norvegicus, UniProt P10980); assay: Muscarinic m2 receptor binding ([^3 H]AFDX 384), NOVASCREEN; conditions: for muscarinic m2 affinity relative to dopamine transporter affinity: in words
T1 sequence (P10980 1-466): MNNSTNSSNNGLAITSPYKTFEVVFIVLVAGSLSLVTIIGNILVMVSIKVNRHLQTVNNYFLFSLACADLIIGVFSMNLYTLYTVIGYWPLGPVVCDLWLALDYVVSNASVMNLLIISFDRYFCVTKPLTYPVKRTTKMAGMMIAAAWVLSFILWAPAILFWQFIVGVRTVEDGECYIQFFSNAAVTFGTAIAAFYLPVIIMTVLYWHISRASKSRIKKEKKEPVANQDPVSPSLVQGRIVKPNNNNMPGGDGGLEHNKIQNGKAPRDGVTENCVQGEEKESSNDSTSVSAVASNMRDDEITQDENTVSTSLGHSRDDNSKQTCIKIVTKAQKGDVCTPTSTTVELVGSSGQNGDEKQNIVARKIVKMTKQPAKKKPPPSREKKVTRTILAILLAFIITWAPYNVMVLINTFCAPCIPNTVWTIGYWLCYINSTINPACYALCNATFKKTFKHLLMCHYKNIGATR
From the text: as §1

muscarinic m1 receptors = molecular target: T2, muscarinic m1 receptors (Rattus norvegicus, UniProt P08482); assay: biochemical; format: binding
T2 sequence (P08482 1-460): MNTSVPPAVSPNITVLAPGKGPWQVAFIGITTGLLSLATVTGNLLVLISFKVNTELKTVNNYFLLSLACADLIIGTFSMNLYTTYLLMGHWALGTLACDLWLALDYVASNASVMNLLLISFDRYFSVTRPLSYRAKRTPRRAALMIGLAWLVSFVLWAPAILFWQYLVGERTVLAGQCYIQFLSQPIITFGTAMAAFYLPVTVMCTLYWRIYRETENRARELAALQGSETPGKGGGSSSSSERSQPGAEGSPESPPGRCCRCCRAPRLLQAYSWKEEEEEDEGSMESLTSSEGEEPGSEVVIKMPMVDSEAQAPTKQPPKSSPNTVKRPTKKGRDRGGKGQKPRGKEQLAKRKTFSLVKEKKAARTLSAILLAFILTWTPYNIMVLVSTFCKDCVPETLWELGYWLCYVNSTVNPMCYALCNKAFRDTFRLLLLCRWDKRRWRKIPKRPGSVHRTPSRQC

[4] = molecular target: T3, dopamine transporter (DAT) (Rattus norvegicus, UniProt P23977); assay: Displacement of [^3 H]WIN 35,428 binding (Dopamine Transporter Binding Assay); conditions: for Ki: Table III, displacement of [^3 H]WIN 35,428, rat caudate putamen, % error in parentheses
T3 construct: brains removed to an ice-cooled dish for dissection of the caudate putamen; from tissue; host or cells: rat caudate putamen, washed membranes of male Sprague-Dawley rats (Taconic)
T3 sequence (P23977 whole entry): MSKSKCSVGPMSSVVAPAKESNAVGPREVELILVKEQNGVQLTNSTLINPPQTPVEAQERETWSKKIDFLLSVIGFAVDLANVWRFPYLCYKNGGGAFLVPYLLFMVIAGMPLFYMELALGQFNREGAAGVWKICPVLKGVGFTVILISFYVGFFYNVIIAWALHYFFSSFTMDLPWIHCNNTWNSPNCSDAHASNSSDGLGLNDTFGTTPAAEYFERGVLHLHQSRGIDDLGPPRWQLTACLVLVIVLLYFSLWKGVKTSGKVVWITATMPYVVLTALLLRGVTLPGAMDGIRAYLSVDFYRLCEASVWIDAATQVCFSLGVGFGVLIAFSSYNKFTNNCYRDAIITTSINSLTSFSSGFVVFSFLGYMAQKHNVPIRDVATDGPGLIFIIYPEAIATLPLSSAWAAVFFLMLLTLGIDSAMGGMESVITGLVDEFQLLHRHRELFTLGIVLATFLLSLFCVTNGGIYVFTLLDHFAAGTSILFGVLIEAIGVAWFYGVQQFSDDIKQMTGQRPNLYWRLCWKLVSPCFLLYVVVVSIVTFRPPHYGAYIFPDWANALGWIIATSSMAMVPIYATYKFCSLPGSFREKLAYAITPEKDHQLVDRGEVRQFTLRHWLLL

[5] = Table V, rat caudate putamen, read-out: [^3 H]DA Uptake Inhibition IC50
[6] = Table IV, head prints no unit, IC50 in nM, read-out: [^3 H]DAU (inhibition of [^3 H]-Dopamine Uptake)
[7] = read-out: NET, % Inhibition at 10 μM
[8] = Table III footnote b, read-out: m2, % Inhibition of radiolabeled ligand binding

Chain of serotonin transporter (5HTT) (P31652 whole entry): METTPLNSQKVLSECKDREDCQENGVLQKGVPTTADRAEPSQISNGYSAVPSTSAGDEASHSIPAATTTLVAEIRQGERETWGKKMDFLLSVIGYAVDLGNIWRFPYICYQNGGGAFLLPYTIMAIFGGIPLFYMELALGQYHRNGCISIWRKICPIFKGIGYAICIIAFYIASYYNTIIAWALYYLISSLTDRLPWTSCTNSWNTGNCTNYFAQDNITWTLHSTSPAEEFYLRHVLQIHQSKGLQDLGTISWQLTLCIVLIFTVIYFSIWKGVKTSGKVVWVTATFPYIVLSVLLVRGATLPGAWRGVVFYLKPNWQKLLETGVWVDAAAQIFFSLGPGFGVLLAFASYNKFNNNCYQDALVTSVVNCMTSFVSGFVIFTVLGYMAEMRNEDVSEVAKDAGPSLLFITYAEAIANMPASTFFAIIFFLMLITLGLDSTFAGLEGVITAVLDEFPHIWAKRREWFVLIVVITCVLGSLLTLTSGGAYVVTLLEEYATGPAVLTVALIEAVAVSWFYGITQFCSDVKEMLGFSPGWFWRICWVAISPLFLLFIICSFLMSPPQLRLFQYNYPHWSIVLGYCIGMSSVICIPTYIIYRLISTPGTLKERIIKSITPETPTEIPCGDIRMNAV

SMILES	inhibition at 10 µM ([1]; read-out: 5HTT (% I@10 μM)) [%]	IC50 [2, 5] [nM]	inhibition at 10 µM ([3]; read-out: NET (% I@10 μM)) [%]	Ki (muscarinic m2 receptors; Table III) [nM]	Ki (muscarinic m1 receptors; Table III, read-out: m1, Ki) [nM]	IC50 [2, 6] [nM]	also measured
CN1[C@@H]2CC[C@H]1C[C@@H](OC(c1ccccc1)c1ccc(Cl)cc1)C2 (stereo partly drawn) [Compound 7a, 4'-Cl-3α-(diphenylmethoxy)tropane]	34	115	32	–	–	–	–
COc1ccc(C(O[C@H]2C[C@H]3CC[C@@H](C2)N3C)c2ccccc2)cc1 (stereo partly drawn) [Compound 7d, 4'-methoxy-3α-(diphenylmethoxy)tropane]	30.5	468	30.9	18.9	4.2	–	–
O=CN1[C@@H]2CC[C@H]1C[C@@H](OC(c1ccc(F)cc1)c1ccc(F)cc1)C2 [AHN 2-032]	–	–	–	–	–	5380	inhibition at 10 µM ([1]; Table IV footnote b, 10 μM, read-out: 5HHT, % Inhibition at 10 μM): 1.6%; inhibition at 10 µM (muscarinic m2 receptors; Table IV footnote b, read-out: m2, % Inhibition at 10 μM): 62%; inhibition at 10 µM (muscarinic m1 receptors; Table IV footnote b, 10 μM): 54%; inhibition at 10 µM [3, 7]: 29%
C=CCN1[C@@H]2CC[C@H]1C[C@@H](OC(c1ccc(F)cc1)c1ccc(F)cc1)C2 [AHN 2-005, N-allyl-4',4"-difluorobenztropine]	–	–	–	–	–	14	Ki [1]: 1970 nM; Ki (muscarinic m2 receptors; Table IV): 254 nM; Ki (muscarinic m1 receptors; Table IV, read-out: m1, Ki): 89.1 nM; inhibition at 10 µM [3, 7]: 22.1%
COc1ccc(C(O[C@H]2C[C@H]3CC[C@@H](C2)N3C)c2ccc(OC)cc2)cc1 [Compound 7e]	31	2880	34	1000	39.6	–	–
Cc1ccc(C(O[C@H]2C[C@H]3CC[C@@H](C2)N3C)c2ccc(C)cc2)cc1 [Compound 7o]	35.5	2540	35.1	716	47.2	–	Ki [4]: 420 nM
CN1[C@@H]2CC[C@H]1C[C@@H](OC(c1ccccc1)c1ccc([N+](=O)[O-])cc1)C2 (stereo partly shown) [Compound 7f]	54	219	29	41.9	7.1	–	Ki ([1]; Table III, footnote d, read-out: 5HTT Ki value in nM (bracketed)): > 3570 nM; Ki [4]: 197 nM
Fc1ccc(CN2[C@@H]3CC[C@H]2C[C@@H](OC(c2ccc(F)cc2)c2ccc(F)cc2)C3)cc1 [JKW 009]	–	–	–	–	–	204	Ki [1]: 53.4 nM; Ki (muscarinic m1 receptors): 0.45 nM; inhibition at 10 µM [3, 7]: 60%
CN1[C@@H]2CC[C@H]1C[C@@H](OC(c1ccccc1)c1ccc(Br)cc1)C2 (stereo partly shown) [Compound 7h]	39	29	37	39.1	3.7	–	Ki [4]: 37.9 nM
Fc1ccc(C(O[C@H]2C[C@H]3CC[C@@H](C2)N3CC=Cc2ccccc2)c2ccc(F)cc2)cc1 [AHN 2-006]	–	–	–	–	–	184	Ki [1]: 1490 nM; Ki (muscarinic m2 receptors; Table IV): 1590 nM; Ki (muscarinic m1 receptors): 240 nM; Ki [3]: 577 nM
Fc1ccc(C(O[C@H]2C[C@H]3CC[C@@H](C2)N3CC2CC2)c2ccc(F)cc2)cc1 [JHW 013]	–	–	–	–	–	180	Ki [1]: 53.4 nM; Ki (muscarinic m1 receptors; Table IV, read-out: m1, Ki): 7.7 nM; Ki [3]: 117 nM
CN1[C@@H]2CC[C@H]1C[C@@H](OC(c1ccccc1)c1ccc(C#N)cc1)C2 (stereo partly shown) [Compound 7g]	40	222	16	74	–	–	Ki (muscarinic m1 receptors; read-out: m1, Ki): 7.1 nM; Ki [4]: 196 nM
CN1[C@@H]2CC[C@H]1C[C@@H](OC(c1ccc(Br)cc1)c1ccc(Br)cc1)C2 [Compound 7i]	41	34	41.1	–	–	–	inhibition at 10 µM (muscarinic m2 receptors; [8]): 66%; lower affinity for muscarinic m1 receptors than the parent benztropine (muscarinic m1 receptors): > 70 fold; Ki [4]: 91.6 nM
COC(=O)[C@H]1[C@@H](OC(=O)c2ccccc2)C[C@@H]2CC[C@H]1N2C [cocaine, reference compound]	–	–	–	–	–	–	mode of displacement of [^3 H]WIN 35,428 binding ([4]; monophasic vs. biphasic): biphasic displacement; also recorded: revealed two binding sites
Fc1ccc(C(O[C@H]2C[C@H]3CC[C@@H](C2)N3CCCc2ccccc2)c2ccc(F)cc2)cc1 [JHW 010]	–	–	–	–	–	227	Ki (muscarinic m2 receptors; Table IV): 499 nM; Ki (muscarinic m1 receptors): 273 nM
CCCCN1[C@@H]2CC[C@H]1C[C@@H](OC(c1ccc(F)cc1)c1ccc(F)cc1)C2 [JHW 007]	–	–	–	–	–	–	IC50 ([2]; Table IV footnote d: biphasic inhibition curve, IC50 in nM, read-out: [^3 H]DAU (inhibition of [^3 H]-Dopamine Uptake), biphasic inhibition curve): 371 nM; Ki (muscarinic m2 receptors; Table IV): 308 nM; muscarinic m2 affinity relative to dopamine transporter affinity (muscarinic m2 receptors): significantly lower binding affinities at the muscarinic m1 and m2 receptors as compared to binding affinities at the dopamine transporter; Ki (muscarinic m1 receptors): 527 nM; muscarinic m1 affinity relative to dopamine transporter affinity (muscarinic m1 receptors): significantly lower binding affinities at the muscarinic m1 and m2 receptors as compared to binding affinities at the dopamine transporter
CN1[C@@H]2CC[C@H]1C[C@@H](OC(c1ccccc1)c1ccc(C(C)(C)C)cc1)C2 (stereo partly shown) [Compound 7n]	24.7	4460	37.6	–	148	–	inhibition at 10 µM (muscarinic m2 receptors; [8]): 54%
CN1[C@@H]2CC[C@H]1C[C@@H](OC(c1ccccc1)c1ccc(F)cc1)C2 (stereo partly shown) [Compound 7j]	35.2	–	37.9	15	1.1	–	–
Fc1ccc(C(O[C@H]2C[C@H]3CC[C@@H](C2)N3Cc2ccccc2)c2ccc(F)cc2)cc1 [JHW 005]	–	–	–	–	–	285	Ki [1]: 1810 nM; Ki (muscarinic m2 receptors; Table IV): 276 nM; muscarinic m2 affinity relative to dopamine transporter affinity (muscarinic m2 receptors): significantly lower binding affinities at the muscarinic m1 and m2 receptors as compared to binding affinities at the dopamine transporter; Ki (muscarinic m1 receptors; Table IV, read-out: m1, Ki): 2490 nM; muscarinic m1 affinity relative to dopamine transporter affinity (muscarinic m1 receptors; in words): significantly lower binding affinities at the muscarinic m1 and m2 receptors as compared to binding affinities at the dopamine transporter
CN1[C@@H]2CC[C@H]1C[C@@H](OC(c1ccc(Cl)cc1)c1ccc(Cl)cc1)C2 [Compound 7b]	–	–	43	1490	–	–	Ki [3]: > 6000 nM
Fc1ccc(C(O[C@H]2C[C@H]3CC[C@@H](C2)N3)c2ccc(F)cc2)cc1 [AHN 2-003, N-nor-4',4"-difluorobenztropine]	–	–	–	–	–	10	Ki (muscarinic m2 receptors; Table IV): 620 nM; Ki (muscarinic m1 receptors; Table IV, read-out: m1, Ki): 90.7 nM; Ki [3]: > 8000 nM
COC(=O)[C@H]1[C@@H](c2ccc(F)cc2)C[C@@H]2CC[C@H]1N2C [[^3 H]WIN 35,428, 2β-carbomethoxy-3β-(4-fluorophenyl)tropane, reference compound]	–	–	–	–	–	–	Bmax, high affinity component of [^3 H]WIN 35,428 binding ([4]; high affinity component, LIGAND analysis): 445±338 fmol/mg protein; Bmax, low affinity component of [^3 H]WIN 35,428 binding ([4]; low affinity component, LIGAND analysis): 1995±559 fmol/mg protein
